Source: US9340575B2, “Agonists and antagonists of the urotensinergic system” (INSTITUT NATIONAL DE LA RECHERCHE SCIENTIFIQUE, priority 2011, dated 2016)
pEC50, pIC50: −log10 of the molar value. Like-named read-outs stand apart in the source and are kept apart here. Marks after values point to notes of the source that are not given here. Bridge positions count the residues as written; N and C are the ends. Ends that are not written are not given here.

Columns and labels:
[1] = tested on: rat thoracic aorta rings; assay type: cell-based; settings: for Aortic Ring contraction pEC50: endothelium-denuded rat thoracic aorta; for Aortic Ring contraction Emax (%): percentage of contraction induced by KCl (40 mM); for Aortic Ring contraction Emax (%), maximum efficacy at 10^−5.5M: percentage of KCl (40 mM) contraction
Method: Binding and functional experiments were performed at least in triplicate and data, expressed as mean±S.E.M, were analyzed using the Prism software (Graph Pad Software, San Diego, Calif.). In all experiments, n represents the total number of animals studied or individual assays performed. The EC50, pEC50, pIC50 values as well as the Emax value were determined from the concentration-response curves using a sigmoidal dose-response fit with variable slope. […] The slope is calculated from the double reciprocal plot of equiactive concentrations of agonist in the presence and absence of antagonist.

[2] = molecular target: T1, human urotensin II receptor (UT) (Homo sapiens, UniProt Q9UKP6); test: Competitive radioligand binding on CHO-UT cells; settings: for pIC50: 125I-hUII 0.2 nM, CHO-UT cells, 95% confidence limits in parentheses, read-out: Binding IC50
T1 construct: expressed in transfected cells; host or cells: CHO cells (CHO-UT), stably transfected, G418 selection
T1 sequence (Q9UKP6 1-389): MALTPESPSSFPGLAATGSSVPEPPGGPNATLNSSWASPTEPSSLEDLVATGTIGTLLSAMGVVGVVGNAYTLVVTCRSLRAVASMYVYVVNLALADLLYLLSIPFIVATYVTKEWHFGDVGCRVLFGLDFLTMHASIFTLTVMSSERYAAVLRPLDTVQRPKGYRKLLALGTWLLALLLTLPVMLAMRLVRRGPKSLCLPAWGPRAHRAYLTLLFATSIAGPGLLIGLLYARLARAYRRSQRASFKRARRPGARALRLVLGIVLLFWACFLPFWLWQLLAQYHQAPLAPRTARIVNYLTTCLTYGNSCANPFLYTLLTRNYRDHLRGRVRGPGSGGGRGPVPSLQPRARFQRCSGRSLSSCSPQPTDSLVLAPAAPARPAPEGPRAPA
Method: Transfected CHO cells expressing the human urotensin receptor (CHO-UT) were maintained in Ham-F12 medium with 10% fetal bovine serum (FBS), 2 mM L-glutamine, 100 UI/mL each of penicillin and streptomycin, and 400 μg/mL G418. […] Binding assays were following known literature procedures using CHO cells stably transfected with hGPR14. […] After 90 min of incubation at room temperature, cells were washed, lysed, and the cell-bound radioactivity was quantified using a γ-counter. […] The cells were then washed, lysed, and the radioactivity counted on a γ-counter (1470 Automatic Gamma Counter, Perkin Elmer). Binding and functional experiments were performed at least in triplicate and data, expressed as mean±S.E.M, were analyzed using the Prism software (Graph Pad Software, San Diego, Calif.). In all experiments, n represents the total number of animals studied or individual assays performed. The EC50, pEC50, pIC50 values as well as the Emax value were determined from the concentration-response curves using a sigmoidal dose-response fit with variable slope. […] The slope is calculated from the double reciprocal plot of equiactive concentrations of agonist in the presence and absence of antagonist.

[3] = tested on: anaesthetized rats; test: Hemodynamic assessment (arterial blood pressure) in anaesthetized rats; assay type: in vivo, rat
Method: Male Sprague-Dawley rats, weighing 350-400 g, were anaesthetized by isoflurane inhalation delivered in 100% oxygen (1 l/min) from an Ohmeda Tec 4 anaesthetic vaporizer (Somatechnology, Inc., Bloomfield, Conn., USA). Anaesthesia was maintained by mask inhalation of isoflurane vaporized at concentrations of up to 3% in the induction phase, at 1.5% during acute surgical procedures and at 0.8-1.0% during experimental observations. […]. […] A period of stabilisation of 30 min was observed and the following experimental protocols were then performed and arterial blood pressure was evaluated. During isoflurane inhalation, no breathing complications or changes in blood pressure were observed. […].
In a preliminary study, individual rats received a single i.v. injection of hUII ranging from 1 to 30 nmol/kg. A dose-response curve, reflecting the effect of hUII on the change in blood pressure, was then determined.
In this set of experiments, five groups of rats were used. […] […]. Hemodynamic changes were continuously captured by the pressure probe over a period of 1 h. The maximum rise and the maximum drop in blood pressure was determined and analyzed using the PowerLab software (ADInstruments, Colorado Springs, Colo., USA).
In the control group, the rats received two doses of hUII (10 nmol/kg) with a 30 min interval between the first and second injection.

Compound: CC(C)[C@H](NC(=O)[C@@H]1CSSC[C@H](NC(=O)[C@H](C)N)C(=O)N[C@@H](Cc2ccccc2)C(=O)N[C@@H](c2ccccc2)C(=O)N[C@@H](CCCCN)C(=O)N[C@@H](Cc2ccc(O)cc2)C(=O)N1)C(=O)O [Compound 14, H-Ala-Cys-Phe-Phg-Lys-Tyr-Cys-Val-OH]
- pEC50 [1]: 6.60
- Aortic Ring contraction pEC50 [1]: 6.60 ± 0.15
- Aortic Ring contraction Emax (%) [1]: 102 ± 9%
- Binding affinity for UT (in words) [2]: high binding affinity
- pIC50 [2]: 7.54

Compound: CC(C)[C@H](NC(=O)[C@@H]1CSSC[C@H](NC(=O)[C@H](C)N)C(=O)N[C@@H](Cc2ccccc2)C(=O)N[C@H](Cc2cccc3ccccc23)C(=O)N[C@@H](CCCCN)C(=O)N[C@@H](Cc2ccc(O)cc2)C(=O)N1)C(=O)O [Compound 4, [D-1-Nal^4]URP]
- pEC50 [1]: 6.08
- Aortic Ring contraction pEC50 [1]: 6.08 ± 0.04
- Aortic Ring contraction Emax (%), maximum efficacy at 10^−5.5M [1]: 34%

Compound: CC(C)[C@H](NC(=O)[C@@H]1CSSC[C@H](NC(=O)[C@H](C)N)C(=O)N[C@@H](Cc2ccccc2)C(=O)N[C@H](C(C)(C)C)C(=O)N[C@@H](CCCCN)C(=O)N[C@@H](Cc2ccc(O)cc2)C(=O)N1)C(=O)O [Compound 8, [D-Tbg^4]URP]
- pEC50 [1]: 6.58

Compound: CC(C)[C@H](NC(=O)[C@@H]1CSSC[C@H](NC(=O)[C@H](C)N)C(=O)N[C@@H](Cc2ccccc2)C(=O)N[C@H]2Cc3c([nH]c4ccccc34)CN(C2=O)[C@@H](CCCCN)C(=O)N[C@@H](Cc2ccc(O)cc2)C(=O)N1)C(=O)O [Compound 12, H-Ala-Cys-Phe-Aia-Lys-Tyr-Cys-Val-OH]
- pEC50 [1]: 6.74
- Aortic Ring contraction pEC50 [1]: 6.42 ± 0.13
- Aortic Ring contraction Emax (%) [1]: 51 ± 4%
- Binding affinity for UT (in words) [2]: low binding affinity

Compound: CC(C)[C@H](NC(=O)[C@@H]1CSSC[C@H](NC(=O)[C@H](C)N)C(=O)N[C@@H](Cc2ccccc2)C(=O)N[C@@H](C(c2ccccc2)c2ccccc2)C(=O)N[C@@H](CCCCN)C(=O)N[C@@H](Cc2ccc(O)cc2)C(=O)N1)C(=O)O [Compound 9, H-Ala-Cys-Phe-Dip-Lys-Tyr-Cys-Val-OH]
- Agonist behaviour in aortic ring contraction (in words) [1]: weak UT agonist
- pEC50 [1]: < 6.00
- Aortic Ring contraction pEC50 [1]: <6
- Aortic Ring contraction Emax (%), maximum efficacy at 10^−5.5M [1]: 23^d %

Compound: CC(C)[C@H](NC(=O)[C@@H]1CSSC[C@H](NC(=O)[C@H](C)N)C(=O)N[C@@H](Cc2ccccc2)C(=O)N[C@@H]2Cc3c([nH]c4ccccc34)CN(C2=O)[C@@H](CCCCN)C(=O)N[C@@H](Cc2ccc(O)cc2)C(=O)N1)C(=O)O [Compound 13, [D-Aia^4]URP]
- pEC50 [1]: 6.80

Compound: CC(C)[C@H](NC(=O)[C@@H]1CSSC[C@H](NC(=O)[C@H](C)N)C(=O)N[C@@H](Cc2ccccc2)C(=O)N[C@H](c2ccccc2)C(=O)N[C@@H](CCCCN)C(=O)N[C@@H](Cc2ccc(O)cc2)C(=O)N1)C(=O)O [Compound 15, [D-Phg^4]URP]
- pEC50 [1]: 6.93
- Aortic Ring contraction pEC50 [1]: 6.93 ± 0.09
- Aortic Ring contraction Emax (%) [1]: 116 ± 5%
- Binding affinity for UT (in words) [2]: high binding affinity
- pIC50 [2]: 7.54

Compound: CC(C)[C@H](NC(=O)[C@@H]1CSSC[C@H](NC(=O)[C@H](C)N)C(=O)N[C@@H](Cc2ccccc2)C(=O)N2Cc3[nH]c4ccccc4c3C[C@H]2C(=O)N[C@@H](CCCCN)C(=O)N[C@@H](Cc2ccc(O)cc2)C(=O)N1)C(=O)O [Compound 10, H-Ala-Cys-Phe-Tpi-Lys-Tyr-Cys-Val-OH]
- Agonist behaviour in aortic ring contraction (in words) [1]: vasoconstriction comparable to hUII or URP with however a slightly reduced potency
- Aortic Ring contraction Emax (%) [1]: 139 ± 17%
- Binding affinity for UT (in words) [2]: high affinity for UT

Compound: [Pro^7]hUII: hUII in which the Trp residue is replaced by a Pro moiety (ETPDCFPKYCV-OH; disulfide 5-10 (inferred))
- Agonist behaviour in aortic ring contraction (in words) [1]: weak agonistic effect
- Aortic Ring contraction Emax (%), maximum efficacy at 10^−5.5M [1]: 69%

Compound: CC(C)[C@H](NC(=O)[C@@H]1CSSC[C@H](NC(=O)[C@H](C)N)C(=O)N[C@@H](Cc2ccccc2)C(=O)N2CCc3ccccc3[C@@H]2C(=O)N[C@@H](CCCCN)C(=O)N[C@@H](Cc2ccc(O)cc2)C(=O)N1)C(=O)O [Compound 17, [D-Tiq^4]URP]
- pEC50 [1]: 7.68
- Aortic Ring contraction pEC50 [1]: 7.68 ± 0.17
- Aortic Ring contraction Emax (%) [1]: 113 ± 7%

Compound: CC(C)[C@H](NC(=O)[C@@H]1CSSC[C@H](NC(=O)[C@H](C)N)C(=O)N[C@@H](Cc2ccccc2)C(=O)N[C@@H](Cc2cccc3ccccc23)C(=O)N[C@@H](CCCCN)C(=O)N[C@@H](Cc2ccc(O)cc2)C(=O)N1)C(=O)O [Compound 3, H-Ala-Cys-Phe-Nal-Lys-Tyr-Cys-Val-OH]
- Agonist behaviour in aortic ring contraction (in words) [1]: almost equipotent analog
- pEC50 [1]: 7.27
- Aortic Ring contraction pEC50 [1]: 7.27 ± 0.24
- Aortic Ring contraction Emax (%) [1]: 86 ± 8%

Compound: CC(C)[C@H](NC(=O)[C@@H]1CSSC(C)(C)[C@H](NC(=O)[C@H](C)N)C(=O)N[C@@H](Cc2ccccc2)C(=O)N2CCc3ccccc3[C@H]2C(=O)N[C@@H](CCCCN)C(=O)N[C@@H](Cc2ccc(O)cc2)C(=O)N1)C(=O)O [Compound 20, H-Ala-Pen-Phe-Tiq-Lys-Tyr-Cys-Val-OH]
- pIC50 [2]: < 5.00

Compound: CC(C)[C@H](NC(=O)[C@@H]1CSSC[C@H](NC(=O)[C@H](CC(=O)O)NC(=O)[C@@H]2CCCN2C(=O)[C@@H](NC(=O)[C@@H](N)CCC(=O)O)[C@@H](C)O)C(=O)N[C@@H](Cc2ccccc2)C(=O)N[C@@H](Cc2c[nH]c3ccccc23)C(=O)N[C@@H](CCCCN)C(=O)N[C@@H](Cc2ccc(O)cc2)C(=O)N1)C(=O)O [Compound 1, reference compound]
- Hemodynamic response to bolus i.v. injection ([3]; 0.01 μmol/kg i.v.): biphasic hemodynamic response
- Time of hypotension nadir ([3]; 0.01 μmol/kg i.v.): ~6 min
- Time of pressor phase peak ([3]; 0.01 μmol/kg i.v.): ~1 min
- Response to repeated injections ([3]; 10 nmol/kg twice, 30 min interval): equivalent biphasic responses
- Effect of prior hUII injection on hypotensive effect of URP ([3]; URP injected 30 min after hUII, 10 nmol/kg): significantly reduced
- Dose giving the most significant drop in blood pressure ([3]; single i.v. injection, 1 to 30 nmol/kg tested): 10 nmol/kg
- pEC50 [1]: 9.00
- Aortic Ring contraction pEC50 [1]: 9.08 ± 0.25
- Aortic Ring contraction pEC50 ([1]; listed as hUII): 8.98±0.21
- Aortic Ring contraction Emax (%) [1]: 117 ± 7%
- Aortic Ring contraction Emax (%) ([1]; listed as hUII): 124±8%

Compound: CC(C)[C@H](NC(=O)[C@@H]1CSSC[C@H](NC(=O)[C@H](C)N)C(=O)N[C@@H](Cc2ccccc2)C(=O)N2Cc3ccccc3C[C@@H]2C(=O)N[C@@H](CCCCN)C(=O)N[C@@H](Cc2ccc(O)cc2)C(=O)N1)C(=O)O [Compound 19, [D-Tic^4]URP]
- pEC50 [1]: 6.59
- Aortic Ring contraction pEC50 [1]: 6.08 ± 0.04
- Aortic Ring contraction Emax (%) [1]: 128 ± 12%

Compound: CC(C)[C@H](NC(=O)[C@@H]1CSSC[C@H](NC(=O)[C@H](C)N)C(=O)N[C@@H](Cc2ccccc2)C(=O)N[C@@H](Cc2ccc(I)cc2)C(=O)N[C@@H](CCCCN)C(=O)N[C@@H](Cc2ccc(O)cc2)C(=O)N1)C(=O)O [Compound 5, H-Ala-Cys-Phe-Phe(I)-Lys-Tyr-Cys-Val-OH]
- Drop in binding affinity on substitution of Trp ([2]; versus native peptide): 4 fold
